# Values of other authors, collected in patent US20070027217A1, “Composition and Method for Preventing Secondary Burn Ischemia” (priority 2005, published 2007).
# Entries after “also recorded” stand apart in the source; their conditions may differ.
# Assays:
# [1] = system: 38% full thickness burn; conditions: burn victim taking ibuprofen for arthritis
# [2] = system: burned hamster model; conditions: intravenous infusion
# [3] = system: rat comb burn
# [4] = system: burns; conditions: in vivo
Compound,hypermetabolic response during recovery [1],vasodilation response to burn injury [2],start of restoration of blood flow within interspaces ([3]; injected immediately after burn trauma) [h],vascular occlusion / blood flow within the interspaces ([3]; systemic application or injection),vascular occlusion and loss of blood flow in burns [4]
CC(C)Cc1ccc(C(C)C(=O)O)cc1 (centres unmarked) [ibuprofen],failed to show the expected hypermetabolic response,reduction in the vasodilation response,16,preserves blood flow; also recorded: restores vessel patency and blood flow,–
COc1ccc2c(c1)c(CC(=O)O)c(C)n2C(=O)c1ccc(Cl)cc1 [indomethacin],–,–,–,–,does not prevent vascular occlusion and loss of blood flow
